Measured values: PubChem BioAssay (NCI)
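48-hour exposure; five concentrations; linearly interpolated endpoints. TGI marks complete inhibition of growth.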

Legend:
Test in all cases: NCI anticancer screen, dose series, 48 h
SK-OV-3 ovarian = tested on: SK-OV-3 ovarian
NCI-H226 lung = tested on: NCI-H226 lung
K-562 leukemia = tested on: K-562 leukemia
OVCAR-4 ovarian = tested on: OVCAR-4 ovarian
M14 melanoma = tested on: M14 melanoma
OVCAR-3 ovarian = tested on: OVCAR-3 ovarian
A498 renal = tested on: A498 renal
MDA-MB-435 = tested on: MDA-MB-435
T-47D breast = tested on: T-47D breast
U251 CNS = tested on: U251 CNS
SNB-19 CNS = tested on: SNB-19 CNS
MDA-N = tested on: MDA-N
SF-539 CNS = tested on: SF-539 CNS
SF-268 CNS = tested on: SF-268 CNS
PC-3 prostate = tested on: PC-3 prostate
TK-10 renal = tested on: TK-10 renal
NCI-H23 lung = tested on: NCI-H23 lung
OVCAR-5 ovarian = tested on: OVCAR-5 ovarian
LOX IMVI melanoma = tested on: LOX IMVI melanoma
SK-MEL-28 melanoma = tested on: SK-MEL-28 melanoma
CCRF-CEM leukemia = tested on: CCRF-CEM leukemia
EKVX NSCLC = tested on: EKVX NSCLC
MDA-MB-231 breast = tested on: MDA-MB-231 breast
MCF7 breast = tested on: MCF7 breast
OVCAR-8 ovarian = tested on: OVCAR-8 ovarian
SK-MEL-2 melanoma = tested on: SK-MEL-2 melanoma
A549 NSCLC = tested on: A549 NSCLC
NCI-H522 lung = tested on: NCI-H522 lung
SK-MEL-5 melanoma = tested on: SK-MEL-5 melanoma
SN12C renal = tested on: SN12C renal
UACC-62 melanoma = tested on: UACC-62 melanoma
HL-60(TB) leukemia = tested on: HL-60(TB) leukemia
SW-620 colon = tested on: SW-620 colon
IGROV1 ovarian = tested on: IGROV1 ovarian
786-0 renal = tested on: 786-0 renal
SF-295 CNS = tested on: SF-295 CNS
DU-145 prostate = tested on: DU-145 prostate
NCI/ADR-RES ovarian = tested on: NCI/ADR-RES ovarian
HCT-15 colon = tested on: HCT-15 colon
KM12 colon = tested on: KM12 colon
MOLT-4 leukemia = tested on: MOLT-4 leukemia
CAKI-1 renal = tested on: CAKI-1 renal
UO-31 renal = tested on: UO-31 renal
ACHN renal = tested on: ACHN renal
HCC-2998 colon = tested on: HCC-2998 colon
RXF 393 renal = tested on: RXF 393 renal
MALME-3M melanoma = tested on: MALME-3M melanoma
HT29 colon = tested on: HT29 colon
COLO 205 colon = tested on: COLO 205 colon
NCI-H460 lung = tested on: NCI-H460 lung
HS 578T breast = tested on: HS 578T breast
UACC-257 melanoma = tested on: UACC-257 melanoma
HOP-62 NSCLC = tested on: HOP-62 NSCLC
HCT-116 colon = tested on: HCT-116 colon

Measured: TGI

Cc1[nH]n(-c2nc3c(c(=O)[nH]2)CCCC3)c(=O)c1CCO
> 100 µM: all assays above
